According to PMC4841542, “New Anti-Inflammatory Metabolites by Microbial Transformation of Medrysone” (PLoS ONE, 2016):
Converted amounts (≈) assume the structure as drawn. “Also recorded” adds a separate entry of the source. Read-outs that look alike come from different tables or passages of the source.

What was measured:
PHA activated T-cells = assay: T-cell proliferation inhibition assay (PBMC, tritiated thymidine); format: cell-based, human; details: for IC50: T-cell; for Inhibition of T-cell proliferation (in words): PHA activated T-cells
Description: The T-Cell proliferation inhibitory activity of compounds was evaluated by following the reported method of Nielsen et al. (1998) with slight modifications. Peripheral blood mononuclear cells (PBMC) were isolated from healthy human donors with their consent by Ficoll-Hypaque density gradient centrifugation. The study was carried out after approval from independent ethics committee, ICCBS-UoK, No: ICCBS/IEC-008-BC-2015/Protocol/1.0.
The cells were adjusted to a final concentration of 2 × 10^6 cells/mL in 5% FBS (fetal bovine serum) containing RPMI 1640 media and added with 5 μg/mL phytohemagglutinin (PHA) in 96-well round bottom plates. Each compound was added in triplicate using four concentrations (0.2, 1, 5, and 25 μg/mL). Positive control wells contained cells and PHA, whereas cells alone served as a negative control. The plate was incubated in 5% CO2 at 37°C for 72 h, and cells were pulsed with 25 μL of tritiated thymidine (0.5 μci/well). The incubation was continued for further 18 h. The cells were finally harvested on a glass fiber filter, and the plate was read as count per minute (CPM) using β-scintillation counter.

[1] = system: zymosan activated PMNs (human whole blood cells); assay: Oxidative burst inhibition assay (luminol-enhanced chemiluminescence, zymosan-activated); format: cell-based; details: for IC50: Whole blood cell, zymosan activated PMNs / human whole blood, tested at 1, 10, 100 μg/mL, mean ± SD of triplicates
Description: Oxidative burst assay was carried out by chemiluminescence technique using luminol as a probe to determine the effect of test compounds on the production of reactive oxygen species (ROS) from phagocytes, employing […] et al. method with slight modifications. […] Louis, MO, USA) and 25 μL ([…]) of luminol (Sigma Chemical Co., St. Louis, MO, USA). HBSS^++ alone was run as a negative control. The level of ROS was measured as RLU (relative light units) with a luminometer (Labsystem Luminoskan RS, Finland). The luminometer was used in repeated scan mode with 50 seconds interval, and one second point measuring time.

[2] = system: TNF-α produced by LPS activated THP-1 cells; assay: Cytokine inhibition assay (TNF-α ELISA); format: cell-based, human; details: for inhibition at 25 µg/mL: Homo sapiens, read-out: TNF-α % inhibition
Excerpt: THP-1 (Human monocytic leukemia cells) was purchased from ECACC (85011428, European Collection of Cell Cultures, UK). The cells were maintained in endotoxin free RPMI-1640 containing 5.5 mmol/L glucose (BioM Laboratories, Chemical Division, Malaysia), 50 μmol/L mercaptoethanol Merck (Damstadt, Germany), 10% FBS (fetal bovine serum), 2 mmol/L L-glutamine (PAA Laboratories, GmbH, Pasching, Austria), 1 mmol/L sodium pyruvate (GIBCO, Grand Island, N.Y., U.S.A.), and 10 mmol/L HEPES (MP Biomedicals, lllkirch, France). Upon reaching 70% confluency, 2.5×10^5 cells/mL cells were plated in 24 well tissue culture plates. The cells were differentiated using 20 ng/mL phorbol myristate acetate (PMA) (SERVA, Heidelberg, Germany) for 24 hours. The cells were stimulated by adding 50 ng/mL of Escherichia coli lipopolysaccharide B (DIFCO Laboratories, U.S.A.) and treated with compound (25 μg/mL). The incubation was continued for 4 hours at 37°C in 5% CO2. The supernatants collected were analyzed for the level of pro-inflammatory cytokine TNF-α, and quantification was performed by human TNF-α kit (R&D Systems, Minneapolis, U.S.A.), according to manufacturer’s instructions.

[3] = Homo sapiens, read-out: IC50, PHA activated T-cells proliferation, human PBMC, 5 μg/mL PHA, tested at 0.2, 1, 5, 25 μg/mL, mean ± SD of triplicates
[4] = human PBMC, 5 μg/mL PHA, tested at 0.2, 1, 5, 25 μg/mL, mean ± SD of triplicates, read-out: IC50, PHA activated T-cells proliferation

Compound	IC50 (PHA activated T-cells; [3]) [µg/mL]	Inhibition of T-cell proliferation (in words) (PHA activated T-cells)	IC50, PHA activated T-cells proliferation (PHA activated T-cells; human PBMC, 5 μg/mL PHA, tested at 0.2, 1, 5, 25 μg/mL, mean ± SD of triplicates) [µg/mL]	IC50 [1] [µg/mL]	inhibition at 25 µg/mL ([2]; THP-1, 4 h) [%]	Inhibition of TNF-α production (in words) ([2]; LPS activated THP-1 cells)	melting point [°C]	IC50 (PHA activated T-cells; [4]) [µg/mL]	inhibition at 25 µg/mL ([2]; compound 25 μg/mL, LPS activated THP-1 cells, 4 h, mean ± SD of triplicates, -ve sign = increase in cytokine level) [%]	Inhibition of oxidative burst / ROS (in words) ([1]; zymosan-induced, human whole blood cells / PMNs)
CC(=O)[C@H]1[C@@H](O)C[C@H]2[C@@H]3C[C@H](C)C4=CC(=O)CC[C@]4(C)[C@H]3[C@@H](O)C[C@@]21C [Compound 7]	0.2 to 10.4 (≈ 0.555 to 28.8 µM)	strongly inhibited; also recorded: strong inhibitory activity	<0.2	> 100	28.6 ± 11.5	inhibit; also recorded: moderate levels of inhibition				
C[C@H]1C[C@H]2[C@@H]3[C@H](O)C[C@H]([C@@H](C)O)[C@@]3(C)CC(=O)[C@@H]2[C@@]2(C)CCC(=O)C=C12 [Compound 8, 15β,20R-Dihydroxy-6α-methylpregn-4-ene-3,11-dione]	10.4 ± 0.42 (≈ 28.8 µM)	strongly inhibited; also recorded: strong inhibitory activity		> 100	-8.23 ± 2.75		274 to 275			
CC(=O)[C@H]1CC[C@H]2[C@@H]3C[C@H](C)C4=CC(=O)CC[C@]4(C)[C@H]3[C@@H](O)C[C@]12C [Compound 1, 11β-hydroxy-6α-methylpregn-4-ene-3,20-dione, reference compound]		strongly inhibited; also recorded: strong inhibitory activity		> 100		inhibit; also recorded: moderate levels of inhibition		2.9 ± 0.04 (≈ 8.42 µM)	30.5 ± 1.69	
CC(=O)[C@H]1CC[C@H]2[C@@H]3C[C@@](C)(O)C4=CC(=O)CC[C@]4(C)[C@H]3C(=O)C[C@]12C [Compound 3, 6β-Hydroxy-6α-methylpregn-4-ene-3,11,20-trione]	14.6 ± 2.1 (≈ 40.7 µM)	moderate inhibitors		> 100	-2.69 ± 5.08					
CC(=O)[C@@]1(O)CC[C@H]2[C@@H]3C[C@@](C)(O)C4=CC(=O)CC[C@]4(C)[C@H]3C(=O)C[C@@]21C [Compound 5, 6β,17α-Dihydroxy-6α-methylpregn-4-ene-3,11,20-trione]	1.2 ± 0.02 (≈ 3.2 µM)	strongly inhibited; also recorded: strong inhibitory activity		> 100	6.44 ± 0.21		289 to 291			
CC(=O)[C@H]1CC[C@@]2(O)[C@@H]3C[C@H](C)C4=CC(=O)CC[C@]4(C)[C@H]3C(=O)C[C@]12C [Compound 2, 14α-Hydroxy-6α-methylpregn-4-ene-3,11,20-trione]	20 ± 0.9 (≈ 55.8 µM)	moderate inhibitors		> 100	-4.04 ± 0.2		209 to 210			
CC(C)Cc1ccc(C(C)C(=O)O)cc1 (stereo not shown) [Ibuprofen, reference compound]				2.5 ± 0.6						
CC(O)C1CCC2C3CC(C)(O)C4=CC(=O)CCC4(C)C3C(=O)CC12C (stereo not drawn) [Compound 6, 6β,20S-Dihydroxy-6α-methylpregn-4-ene-3,11-dione]	15.2 ± 2.4 (≈ 42.2 µM)	moderate inhibitors		30.3 ± 8.8	4.4 ± 9.6		229 to 230			moderate inhibitory activity
C[C@]12C=CC(=O)C=C1CC[C@@H]1[C@@H]2[C@@H](O)C[C@@]2(C)[C@H]1CC[C@]2(O)C(=O)CO [Prednisolone, reference compound]								< 3.1		
CC(=O)[C@H]1C[C@@H](O)[C@H]2[C@@H]3C[C@H](C)C4=CC(=O)CC[C@]4(C)[C@H]3C(=O)C[C@@]21C [Compound 4, 15β-Hydroxy-6α-methylpregn-4-ene-3,11,20-trione]	9.2 ± 0.7 (≈ 25.7 µM)	strongly inhibited; also recorded: strong inhibitory activity		> 100	-7.49 ± 1.27		185 to 186			
